Test results: ChEMBL document CHEMBL2169829, “Water mediated ligand functional group cooperativity: the contribution of a methyl group to binding affinity is enhanced by a COO(-) group through changes in the structure and thermodynamics of the hydration waters of ligand-thermolysin complexes” (J Med Chem, 2012)

Target: T1, Thermolysin (Bacillus thermoproteolyticus, UniProt P00800)
T1 sequence (P00800 whole entry): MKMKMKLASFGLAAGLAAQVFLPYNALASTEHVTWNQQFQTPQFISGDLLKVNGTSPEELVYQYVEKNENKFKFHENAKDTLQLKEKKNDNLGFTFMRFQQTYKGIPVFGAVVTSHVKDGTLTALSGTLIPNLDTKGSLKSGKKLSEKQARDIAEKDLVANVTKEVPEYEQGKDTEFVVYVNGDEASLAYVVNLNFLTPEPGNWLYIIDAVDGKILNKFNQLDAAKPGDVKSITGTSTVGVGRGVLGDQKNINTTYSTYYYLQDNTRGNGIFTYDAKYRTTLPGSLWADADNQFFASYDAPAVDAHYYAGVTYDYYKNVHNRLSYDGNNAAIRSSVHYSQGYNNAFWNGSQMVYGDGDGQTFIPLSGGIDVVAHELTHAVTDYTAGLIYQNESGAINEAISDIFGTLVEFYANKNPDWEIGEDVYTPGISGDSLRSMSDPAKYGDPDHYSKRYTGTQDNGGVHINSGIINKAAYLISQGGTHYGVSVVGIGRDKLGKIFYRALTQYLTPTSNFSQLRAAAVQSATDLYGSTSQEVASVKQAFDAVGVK
Test: Binding affinity to Bacillus thermoproteolyticus thermolysin by UV-VIS spectrophotometric analysis in presence of 2-furanacryloyl-Gly-Leu-NH2

| SMILES | Ki [µM] |
| --- | --- |
| CC(C)C[C@H](NP(=O)(O)CNC(=O)OCc1ccccc1)C(=O)NCC(=O)O | 0.472 |
| CC(C)C[C@H](NP(=O)(O)CNC(=O)OCc1ccccc1)C(=O)N[C@@H](C)C(=O)O | 0.0191 |
| CNC(=O)[C@H](CC(C)C)NP(=O)(O)CNC(=O)OCc1ccccc1 | 0.902 |
| CCNC(=O)[C@H](CC(C)C)NP(=O)(O)CNC(=O)OCc1ccccc1 | 0.289 |
